One may read the IC50 as the concentration that gives 50% inhibition.

Experimental findings from US20240408055A1 (priority 2021, published 2024) are described below.

For one data set, the target named is T1, Cathepsin B (Homo sapiens, UniProt P07858).
T1 construct: purchased BPS BIOSCIENCE 79590
As to the kind of experiment: Cathepsin B Inhibitor Screening Assay Kit (fluorescence). Particulars: Cathepsin B 0.4 ng/group, 50 μL reaction; read-out: half maximal effective concentration (EC50) against Cathepsin B protease activity. The class given is biochemical. How it is done:
In the biochemical test, the Cathepsin B Fluorescence Assay Kit (Cathepsin B Inhibitor Screening Assay Kit, BPS BIOSCIENCE, 79590) was used in the test method. According to the manufacturer's manual, the inhibition activity was measured through continuous kinetic analysis, the samples containing Cathepsin B were reacted with a fluorescent substrate in the mixing, and the measured fluorescence (λex=360 nm, λem=460 nm) readings were used. The E64 protease inhibitor was used as a positive control. The experiment was conducted in a 50 μL reaction system, with a single reaction dose of Cathepsin B at 0.4 ng/group, the E64 protease inhibitor were used as a positive control. The inhibitory impact of various concentrations of Anisomelic acid (0.5, 1, 2.5, 5, 10, 20, and 30 μM) against Cathepsin B protease activity was examined. The significant inhibition of Anisomelic acid against Cathepsin B protease activity was found in a dose-dependent manner.

The target in another data set is Cathepsin L (Homo sapiens, UniProt P07711). The experiment in a line: Cathepsin L Inhibitor Screening Assay Kit (fluorescence). Conditions: Cathepsin L 0.4 ng/group, 50 μL reaction; read-out: half maximal effective concentration (EC50) against Cathepsin L protease activity. The format is biochemical. On the procedure:
The Cathepsin L Fluorescence Assay Kit (Cathepsin L Inhibitor Screening Assay Kit, BPS BIOSCIENCE, 79591) was used in the biochemical test method. According to the manufacturer's manual, the inhibition activity was measured through continuous kinetic analysis, the samples containing Cathepsin L were reacted with a fluorescent substrate in mixing, and the measured fluorescence (λex=360 nm, λem=460 nm) readings were used. The E64 protease inhibitor was used as a positive control. The experiment was conducted in a 50 μL reaction system, with a single reaction dose of Cathepsin L at 0.4 ng/group, the E64 was used as the positive control of inhibition. The inhibitory impact of various concentrations of Anisomelic acid (0.5, 1, 2.5, 5, 10, 20, and 30 μM) against Cathepsin L protease activity was examined. As shown in the right graph of FIG. 5B, the significant inhibition of Anisomelic acid against Cathepsin L protease activity was found in a dose-dependent manner.

The target of another data set is T2, TMPRSS2 (Homo sapiens, UniProt O15393).
T2 construct: purchased BPS BIOSCIENCE 78083
As to the kind of experiment: TMPRSS2 Fluorogenic Assay Kit. The format is biochemical. Conditions: TMPRSS2 150 ng/group, 50 μL reaction; read-out: half maximal effective concentration (EC50) against TMPRSS2 protease activity. How it is done:
In the biochemical experiments, TMPRSS2 Fluorescence Assay Kit (TMPRSS2 Fluorogenic Assay Kit, BPS BIOSCIENCE, 78083) was used in the test method. Inhibitory activity was measured by sequential kinetic analysis according to the manufacturer's manual, the inhibition activity was measured by using continuous kinetic analysis, the samples containing TMPRSS2 were reacted with a fluorescent substrate in a mixing, and a fluorescence (λex=383 nm, λem=455 nm) readings were used. Camostat protease inhibitor was used as a positive control. The experiment was performed in a 50 μL reaction system, the single reaction dose of TMPRSS2 was 150 ng/group, and 10 μM Camostat protease inhibitor was used as a positive control. The effect of Anisomelic acid on the inhibition of TMPRSS2 protease activity was examined by tested various concentrations of Anisomelic acid (0.5, 1, 2.5, 5, 10, 20 and 30 μM). A significant inhibition of Anisomelic acid against TMPRSS2 protease activity was found in a dose-dependent manner.

In data set [1] the target is T3, SARS-CoV-2 main protease (Mpro) (Severe acute respiratory syndrome coronavirus 2, UniProt P0DTD1).
T3 construct: a recombinant 2019-nCoV 3CL protease protein (Elabscience bio Inc) was used; purchased Elabscience bio Inc
The class given is biochemical. Particulars: read-out: half maximal effective concentration (EC50) against Mpro activity.

Data set [2] has as its system SARS-CoV-2 pseudovirus Wuhan D614. The experiment in a line: microbe, parasite or virus in culture. The format is cell-based.
The subject of data set [3] is SARS-CoV-2 pseudovirus South Africa B.1.351. The experiment in a line: microbe, parasite or virus in culture. The format is cell-based.
Data set [4] relates to SARS-CoV-2 pseudovirus Brazil P.1. As to the kind of experiment: microbe, parasite or virus in culture. The format is cell-based.
Data set [5] relates to SARS-CoV-2 pseudovirus India B.1.617.1. As to the kind of experiment: microbe, parasite or virus in culture. The class given is cell-based.
Data set [6] has as its system SARS-CoV-2 pseudovirus Uganda A23.1. As to the kind of experiment: microbe, parasite or virus in culture. The format is cell-based.
Data set [7] has as its system SARS-CoV-2 pseudovirus Nigeria B.1.525. As to the kind of experiment: microbe, parasite or virus in culture. The class given is cell-based.
Data set [8] concerns SARS-CoV-2 pseudovirus California B.1.429. As to the kind of experiment: microbe, parasite or virus in culture. The class given is cell-based.
Data set [9] relates to SARS-CoV-2 pseudovirus New York B.1.526. The experiment in a line: microbe, parasite or virus in culture. The class given is cell-based.
The next data set concerns SARS-CoV-2. Conditions: mouse, in vivo.
[10] abbreviates: Severe acute respiratory syndrome-related coronavirus, Huh-7, read-out: IC50 inhibiting infection.

The structures appear in SMILES notation. pEC50: −log10 of the molar value. Values after ≈ are worked out from the molar mass of the structure shown.

T2 sequence (O15393 whole entry): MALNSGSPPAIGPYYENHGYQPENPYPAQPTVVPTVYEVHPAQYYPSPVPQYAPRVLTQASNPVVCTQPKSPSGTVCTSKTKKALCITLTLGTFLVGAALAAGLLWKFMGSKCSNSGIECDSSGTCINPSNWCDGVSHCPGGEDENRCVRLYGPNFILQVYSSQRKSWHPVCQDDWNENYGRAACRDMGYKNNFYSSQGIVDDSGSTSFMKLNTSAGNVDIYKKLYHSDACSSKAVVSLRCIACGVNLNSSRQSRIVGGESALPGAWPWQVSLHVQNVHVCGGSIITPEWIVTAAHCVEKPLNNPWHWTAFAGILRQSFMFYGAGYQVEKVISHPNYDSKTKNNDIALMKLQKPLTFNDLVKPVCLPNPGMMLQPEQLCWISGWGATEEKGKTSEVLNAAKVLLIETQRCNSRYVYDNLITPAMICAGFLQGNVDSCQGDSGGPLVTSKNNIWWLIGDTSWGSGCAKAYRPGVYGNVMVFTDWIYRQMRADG
Chain of Cathepsin L (P07711 114-333): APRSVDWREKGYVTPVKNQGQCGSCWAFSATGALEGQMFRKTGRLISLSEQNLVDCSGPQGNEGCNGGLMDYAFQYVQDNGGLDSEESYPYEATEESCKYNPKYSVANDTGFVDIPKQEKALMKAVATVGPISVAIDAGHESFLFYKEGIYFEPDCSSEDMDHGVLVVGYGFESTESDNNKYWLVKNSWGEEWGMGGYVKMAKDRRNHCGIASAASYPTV

For `C=C1C(=O)OC2/C=C(/C)CC/C=C(\C(=O)O)CC/C=C(\C)CCC12` (centres unmarked) [Anisomelic acid], the pEC50 at Cathepsin B is 5.37; on Cathepsin L it was 5.43; on TMPRSS2 it was 5.19; in data set [1], 5.01. The IC50 inhibiting infection in data set [2] amounted to 3.50 µg/mL (≈ 10.6 µM); in [3], 27.55 µg/mL (≈ 83.4 µM); in [4], 0.12 µg/mL (≈ 0.363 µM); in data set [5] it was 10.09 µg/mL (≈ 30.5 µM); in data set [6] it was 15.53 µg/mL (≈ 47 µM); in data set [7], 14.36 µg/mL (≈ 43.5 µM). For the same compound, the IC50 inhibiting infection in data set [8] is 8.47 µg/mL (≈ 25.6 µM); in data set [9] it was 8.86 µg/mL (≈ 26.8 µM). For the same compound, the “changes in body weight of the mice” value in the data set with SARS-CoV-2 is “basically similar”. Besides, in the data set with SARS-CoV-2, the “changes in the titers of coronavirus infection in the lungs of mice” value is “better prevention and control effects”.

For the compound `C=C1C(=O)O[C@@H]2/C=C(\C)C[C@H]3C=C(CC/C=C(\C)CC[C@@H]12)C(=O)O3` [Ovatodiolide], the IC50 inhibiting infection is 4.08 µg/mL (≈ 12.4 µM) in [2]; 15.42 µg/mL (≈ 47 µM) in [3]; 7.00 µg/mL (≈ 21.3 µM) in data set [4]; 15.27 µg/mL (≈ 46.5 µM) in data set [5]; 6.72 µg/mL (≈ 20.5 µM) in data set [6]; 8.24 µg/mL (≈ 25.1 µM) in [7]. Also, the values for the IC50 inhibiting infection in data set [8] and in data set [9] were 12.09 µg/mL (≈ 36.8 µM) and 11.35 µg/mL (≈ 34.6 µM), respectively. Also, the “changes in body weight of the mice” value in the data set with SARS-CoV-2 is on record as “basically similar”.

As to `CCC(CC)COC(=O)[C@H](C)N[P@](=O)(OC[C@H]1O[C@@](C#N)(c2ccc3c(N)ncnn23)[C@H](O)[C@@H]1O)Oc1ccccc1` [Remdesivir, reference compound], the IC50 in [2] (setting [10]) turned out to be 2.96 µg/mL (≈ 4.91 µM); in [3] (setting [10]), 27.2 µg/mL (≈ 45.2 µM); in [4] (setting [10]), 13.8 µg/mL (≈ 22.8 µM); in data set [5] (setting [10]) it was 11.9 µg/mL (≈ 19.8 µM); in data set [6] (setting [10]), 7.63 µg/mL (≈ 12.7 µM); in [7] (setting [10]) it was 10.3 µg/mL (≈ 17.1 µM). Moreover, the figures for the IC50 in [8] (setting [10]) and in [9] (setting [10]) were 15.9 µg/mL (≈ 26.4 µM) and 15 µg/mL (≈ 24.9 µM), respectively. For the same compound, the “changes in body weight of the mice” value in the data set on SARS-CoV-2 is “basically similar”.
